Experimental data as given in ChEMBL document CHEMBL1201862, “PubChem BioAssay data set” (2004).
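Protocol summary: plate cells (96-well), add compound at 5 concentrations, incubate 48 h, interpolate endpoints linearly. Here, GI50 denotes the concentration required for 50% inhibition of growth.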 Calls of active or inactive are those of the source. Cut-off read from the data, not from the text of the source: active = GI50 up to about 1.1 µM and inactive = higher.

Assays:
Test in all cases: NCI anticancer screen, dose series, 48 h
SF-295 = test system: SF-295
OVCAR-8 = test system: OVCAR-8
CAKI-1 = test system: CAKI-1
PC-3 = test system: PC-3
SF-539 = test system: SF-539
IGROV-1 = test system: IGROV-1
UO-31 = test system: UO-31
LOX IMVI = test system: LOX IMVI
OVCAR-3 = test system: OVCAR-3
786-0 = test system: 786-0
NCI/ADR-RES = test system: NCI/ADR-RES
K562 = test system: K562
RPMI-8226 = test system: RPMI-8226
DU-145 = test system: DU-145
OVCAR-5 = test system: OVCAR-5
SNB-75 = test system: SNB-75
HCC 2998 = test system: HCC 2998
SNB-19 = test system: SNB-19
UACC-62 = test system: UACC-62
Malme-3M = test system: Malme-3M

Measured: GI50

CCOC(=O)/C(C(N)=O)=C(O)/C(O)=C(\Br)C(=O)c1ccccc1
inactive: SF-295 56.8 µM | OVCAR-8 19.6 µM | CAKI-1 11.1 µM | PC-3 17.4 µM | SF-539 18.5 µM | IGROV-1 15.9 µM | UO-31 18.9 µM | LOX IMVI 15.6 µM | OVCAR-3 20.7 µM | 786-0 15.8 µM | NCI/ADR-RES 25.8 µM | K562 11.8 µM | RPMI-8226 9.25 µM | DU-145 19.6 µM | OVCAR-5 19.4 µM | SNB-75 17.3 µM | HCC 2998 22 µM | SNB-19 47 µM | UACC-62 17.8 µM | Malme-3M 15.1 µM

CC(C)(C)COC1C2(OCCO2)C2CCC1(C)C2(C)C (stereo not given)
inactive: SF-295 18.7 µM | OVCAR-8 23.1 µM | CAKI-1 40.1 µM | PC-3 23.1 µM | SF-539 37.8 µM | IGROV-1 82.8 µM | UO-31 26.2 µM | LOX IMVI 19.2 µM | OVCAR-3 17.6 µM | 786-0 19.4 µM | NCI/ADR-RES 42 µM | K562 18.5 µM | RPMI-8226 19.9 µM | DU-145 35.7 µM | OVCAR-5 28.9 µM | SNB-75 24.1 µM | HCC 2998 37.5 µM | SNB-19 20.6 µM | UACC-62 54.7 µM | Malme-3M 29 µM

O=Nn1c2ccccc2c2ccccc21
inactive: SF-295 42.9 µM | OVCAR-8 > 100 µM | CAKI-1 44.4 µM | PC-3 42.8 µM | SF-539 > 100 µM | IGROV-1 85.3 µM | UO-31 34.4 µM | LOX IMVI 48.1 µM | OVCAR-3 71.9 µM | 786-0 95.1 µM | NCI/ADR-RES 52.8 µM | K562 58.9 µM | RPMI-8226 70.1 µM | DU-145 > 100 µM | OVCAR-5 > 100 µM | SNB-75 75 µM | HCC 2998 17.1 µM | SNB-19 88.9 µM | UACC-62 45.7 µM | Malme-3M 93.3 µM

O=C1NC(=O)C(c2c[nH]c3cc(Br)ccc23)=C1c1cn(C(c2ccccc2)(c2ccccc2)c2ccccc2)cn1
inactive: SF-295 18.1 µM | OVCAR-8 14.6 µM | CAKI-1 22.6 µM | PC-3 6.19 µM | SF-539 14.8 µM | IGROV-1 12 µM | UO-31 14.8 µM | LOX IMVI 15.1 µM | OVCAR-3 29.7 µM | 786-0 8.85 µM | NCI/ADR-RES 27.2 µM | K562 6.3 µM | RPMI-8226 10.1 µM | DU-145 21.6 µM | OVCAR-5 17.5 µM | SNB-75 11.5 µM | HCC 2998 12.6 µM | SNB-19 23.9 µM | UACC-62 18.2 µM | Malme-3M 19.5 µM

CC(N)(Cc1c[nH]c2ccccc12)C(=O)O (stereo not given)
inactive: SF-295 > 100 µM | OVCAR-8 > 100 µM | CAKI-1 > 100 µM | PC-3 > 100 µM | SF-539 > 100 µM | IGROV-1 > 100 µM | UO-31 > 100 µM | LOX IMVI > 100 µM | OVCAR-3 > 100 µM | 786-0 > 100 µM | NCI/ADR-RES > 100 µM | K562 > 100 µM | RPMI-8226 > 100 µM | DU-145 > 100 µM | OVCAR-5 > 100 µM | SNB-75 > 100 µM | HCC 2998 > 100 µM | SNB-19 > 100 µM | UACC-62 > 100 µM | Malme-3M > 100 µM
